# Earlier results as cited in patent US6432966B1, “Antiviral combinations” (SmithKline Beecham Corporation, priority 1999, dated 2002).
# What was measured:
# HBV [1] = conditions: in vitro
# Hepatitis B virus = conditions: oral, woodchucks
# HBV [2] = test system: HBV
structure (smiles),measurement,setting,value
C=C1[C@H](CO)[C@@H](O)C[C@@H]1n1cnc2c(=O)[nH]c(N)nc21 [BMS-200475],anti-HBV activity,HBV [1],anti-HBV activity in vitro
same,efficacy against Hepatitis B virus,Hepatitis B virus,effective against Hepatitis B virus in woodchucks
"Nc1ccn([C@@H]2CS[C@H](CO)O2)c(=O)n1 (relative stereo) [lamivudine, (2R,cis)-4-amino-1-(2-hydroxymethyl-1,3-oxathiolan-5-yl)-pyrimidin-2-one]",patients maintaining undetectable levels of virus,HBV [2]; through to the end of the second year,52%
same,levels of viral replication in patients,HBV [2]; two year study,most patients showed substantially reduced levels of viral replication
